# Laboratory results reported in US8088930B2, “Benzimidazole derivatives” (Hoffmann-La Roche Inc., priority 2008, dated 2012).
# Read-outs that look alike come from different tables or passages of the source.
# Target: T1, FXR ligand binding domain (GST-FXR LBD fusion protein, human FXR aa 193-473) (Homo sapiens, UniProt Q96RI1)
# T1 construct: fused on or other part: Glutathione-S-transferase (GST) fused N-terminally to the FXR LBD, used to capture the protein on glutathione SPA beads
# T1 sequence (Q96RI1 211-486 limits assumed): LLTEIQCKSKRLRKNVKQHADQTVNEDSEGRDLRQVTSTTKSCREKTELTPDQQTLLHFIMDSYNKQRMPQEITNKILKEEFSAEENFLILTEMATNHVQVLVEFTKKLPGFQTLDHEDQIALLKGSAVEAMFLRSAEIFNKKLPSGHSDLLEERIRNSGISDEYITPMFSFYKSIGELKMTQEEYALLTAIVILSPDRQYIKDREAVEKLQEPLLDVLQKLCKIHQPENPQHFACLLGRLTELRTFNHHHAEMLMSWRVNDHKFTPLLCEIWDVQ
# Assay: Radioligand binding assay (scintillation proximity, radioligand displacement)
# Conditions: 40 nM GST-FXR LBD on SPA beads, test compound 6×10^−9 M to 2.5×10^−5 M
# How it was run: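 40 nM GST-FXR LBD, E. coli-expressed, bound to glutathione yttrium silicate SPA beads in 50 mM Hepes pH 7.4, 10 mM NaCl, 5 mM MgCl2, 0.01% CHAPS. Test compounds displace radioligand (e.g. 20 nM benzimidazolyl-acetamide ligand); bound ligand measured by scintillation proximity counting.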
IC50 (read-out: h-IC50 Binding) [nM],Structure (SMILES),IC50 (h-IC50 Binding) [nM]
4,"O=C(O)c1cc(F)c(OCC(C2CCCCC2)n2c(-c3ccc(Cl)cc3)nc3cc(F)c(F)cc32)c(Cl)c1 (centres unmarked) [Example 76, 3-Chloro-4-{2-[2-(4-chloro-phenyl)-5,6-difluoro-benzoimidazol-1-yl]-2-cyclohexyl-ethoxy}-5-fluoro-benzoic acid]",
600,"CC(OCC(C1CCCCC1)n1c(-c2ccc(Cl)cc2)nc2cc(F)c(F)cc21)c1ccc(C(=O)O)cc1 (centres unmarked) [Example 79, 4-(1-{2-[2-(4-Chloro-phenyl)-5,6-difluoro-benzoimidazol-1-yl]-2-cyclohexyl-ethoxy}-ethyl)-benzoic acid]",
1,"COc1ccc(-c2nc3cc(F)c(F)cc3n2C(COc2c(C)cc(C(=O)O)cc2C)C2CCCCC2)c(OC)n1 (centres unmarked) [Example 82, 4-{2-Cyclohexyl-2-[2-(2,6-dimethoxy-pyridin-3-yl)-5,6-difluoro-benzoimidazol-1-yl]-ethoxy}-3,5-dimethyl-benzoic acid]",
10,"O=C(O)c1cc(F)c(OCC(C2CCCCC2)n2c(-c3ccc(Cl)cc3)nc3cc(F)c(F)cc32)c(F)c1 (centres unmarked) [Example 85, 4-{2-[2-(4-Chloro-phenyl)-5,6-difluoro-benzoimidazol-1-yl]-2-cyclohexyl-ethoxy}-3,5-difluoro-benzoic acid]",
200,"CC(C)(Oc1ccc(OCC(C2CCCCC2)n2c(-c3ccc(Cl)cc3)nc3cc(F)c(F)cc32)cc1)C(=O)O (centres unmarked) [Example 90, 2-(4-{2-[2-(4-Chloro-phenyl)-5,6-difluoro-benzoimidazol-1-yl]-2-cyclohexyl-ethoxy}-phenoxy)-2-methyl-propionic acid]",
,"O=C(O)COc1ccc(OCC(C2CCCCC2)n2c(-c3ccc(Cl)cc3)nc3cc(F)c(F)cc32)cc1 (centres unmarked) [Example 91, (4-{2-[2-(4-Chloro-phenyl)-5,6-difluoro-benzoimidazol-1-yl]-2-cyclohexyl-ethoxy}-phenoxy)-acetic acid]",60
90,"Cc1cc(OCC(C2CCCCC2)n2c(-c3ccc(Cl)cc3)nc3cc(F)c(F)cc32)ccc1OCC(=O)O (centres unmarked) [Example 92, (4-{2-[2-(4-Chloro-phenyl)-5,6-difluoro-benzoimidazol-1-yl]-2-cyclohexyl-ethoxy}-2-methyl-phenoxy)-acetic acid]",
300,"Cc1c(OCC(C2CCCCC2)n2c(-c3ccc(Cl)cc3)nc3cc(F)c(F)cc32)ccc(OC(C)(C)C(=O)O)c1C (centres unmarked) [Example 93, 2-(4-{2-[2-(4-Chloro-phenyl)-5,6-difluoro-benzoimidazol-1-yl]-2-cyclohexyl-ethoxy}-2,3-dimethyl-phenoxy)-2-methyl-propionic acid]",
100,"CC(C)(Oc1ccc(OCC(C2CCCCC2)n2c(-c3ccc(Cl)cc3)nc3cc(F)c(F)cc32)c(F)c1)C(=O)O (centres unmarked) [Example 94, 2-(4-{2-[2-(4-Chloro-phenyl)-5,6-difluoro-benzoimidazol-1-yl]-2-cyclohexyl-ethoxy}-3-fluoro-phenoxy)-2-methyl-propionic acid]",
600,"CC(C)(Oc1cccc(OCC(C2CCCCC2)n2c(-c3ccc(Cl)cc3)nc3cc(F)c(F)cc32)c1)C(=O)O (centres unmarked) [Example 95, 2-(3-{2-[2-(4-Chloro-phenyl)-5,6-difluoro-benzoimidazol-1-yl]-2-cyclohexyl-ethoxy}-phenoxy)-2-methyl-propionic acid]",
2,"COc1ccc(-c2nc3cc(F)c(F)cc3n2C(COc2c(F)cc(C(=O)O)cc2F)C2CCCCC2)c(OC)n1 (centres unmarked) [Example 96, 4-{2-Cyclohexyl-2-[2-(2,6-dimethoxy-pyridin-3-yl)-56-difluoro-benzoimidazol-1-yl]-ethoxy}-3,5-difluoro-benzoic acid]",
2,"COc1ccc(-c2nc3cc(F)c(F)cc3n2C(COc2c(C)cc(-c3nnn[nH]3)cc2C)C2CCCCC2)c(OC)n1 (centres unmarked) [Example 99, 1-{1-cyclohexyl-2-[2,6-dimethyl-4-(1H-tetrazol-5-yl)-phenoxy]-ethyl}-2-(2,6-dimethoxy-pyridin-3-yl)-5,6-difluoro-1H-benzoimidazole]",
30,"O=C(O)c1cc(F)c(OCC(C2CCCCC2)n2c(-c3ccc(Cl)cc3)nc3ccccc32)c(F)c1 (centres unmarked) [Example 102, 4-{2-[2-(4-Chloro-phenyl)-benzoimidazol-1-yl]-2-cyclohexyl-ethoxy}-3,5-difluoro-benzoic acid]",
40,"Cc1cc(C(=O)O)cc(C)c1OCC(C1CCCCC1)n1c(-c2ccc(Cl)cc2)nc2ccccc21 (centres unmarked) [Example 105, 4-{2-[2-(4-Chloro-phenyl)-benzoimidazol-1-yl]-2-cyclohexyl-ethoxy}-3,5-dimethyl-benzoic acid]",
10,"O=C(O)c1cc(F)c(OCC(C2CCCCC2)n2c(-c3ccc(Cl)cc3)nc3ccccc32)c(Cl)c1 (centres unmarked) [Example 108, 3-Chloro-4-{2-[2-(4-chloro-phenyl)-benzoimidazol-1-yl]-2-cyclohexyl-ethoxy}-5-fluoro-benzoic acid]",
20,"Cc1cc(-c2nnn[nH]2)cc(C)c1OCC(C1CCCCC1)n1c(-c2ccc(Cl)cc2)nc2ccccc21 (centres unmarked) [Example 111, 2-(4-Chloro-phenyl)-1-{1-cyclohexyl-2-[2,6-dimethyl-4-(1H-tetrazol-5-yl)-phenoxy]-ethyl}-1H-benzoimidazole]",
60,"O=C(O)c1cnc(OCC(C2CCCCC2)n2c(-c3ccc(Cl)cc3)nc3cc(F)c(F)cc32)c(Br)c1 (centres unmarked) [Example 114, 5-Bromo-6-{2-[2-(4-chloro-phenyl)-5,6-difluoro-benzoimidazol-1-yl]-2-cyclohexyl-ethoxy}-nicotinic acid]",
40,"O=C(O)C1(Oc2ccc(OCC(C3CCCCC3)n3c(-c4ccc(Cl)cc4)nc4cc(F)c(F)cc43)cc2)CCC1 (centres unmarked) [Example 117, 1-(4-{2-[2-(4-Chloro-phenyl)-5,6-difluoro-benzoimidazol-1-yl]-2-cyclohexyl-ethoxy}-phenoxy)-cyclobutanecarboxylic acid]",
30,"O=C(O)C1(Oc2ccc(OCC(C3CCCCC3)n3c(-c4ccc(Cl)cc4)nc4cc(F)c(F)cc43)cc2)CC1 (centres unmarked) [Example 120, 1-(4-{2-[2-(4-Chloro-phenyl)-5,6-difluoro-benzoimidazol-1-yl]-2-cyclohexyl-ethoxy}-phenoxy)-cyclopropanecarboxylic acid]",
30,"Cc1cc(Cl)ccc1-c1nc2cc(F)c(F)cc2n1C(COc1ccc(C(=O)O)cn1)C1CCCCC1 (centres unmarked) [Example 123, 6-{2-[2-(4-Chloro-2-methyl-phenyl)-5,6-difluoro-benzoimidazol-1-yl]-2-cyclohexyl-ethoxy}-nicotinic acid]",
3,"Cc1cc(Cl)ccc1-c1nc2cc(F)c(F)cc2n1C(COc1c(F)cc(C(=O)O)cc1F)C1CCCCC1 (centres unmarked) [Example 124, 4-{2-[2-(4-Chloro-2-methyl-phenyl)-5,6-difluoro-benzoimidazol-1-yl]-2-cyclohexyl-ethoxy}-3,5-difluoro-benzoic acid]",
1,"Fc1cc2nc(-c3ccc(Cl)cc3)n(C(COc3c(F)cc(-c4nnn[nH]4)cc3F)C3CCCCC3)c2cc1F (centres unmarked) [Example 127, 2-(4-Chloro-phenyl)-1-{1-cyclohexyl-2-[2,6-difluoro-4-(1H-tetrazol-5-yl)-phenoxy]-ethyl}-5,6-difluoro-1H-benzoimidazole]",
20,"Fc1cc(-c2nnn[nH]2)cc(F)c1OCC(C1CCCCC1)n1c(-c2ccc(Cl)cc2)nc2ccccc21 (centres unmarked) [Example 128, 2-(4-Chloro-phenyl)-1-{1-cyclohexyl-2-[2,6-difluoro-4-(1H-tetrazol-5-yl)-phenoxy]-ethyl}-1H-benzoimidazole]",
